pIC50: −log10 of the molar value.
Test system: 388556-164-R-J1-PDC complex spheroid viability
Experiment: Anticancer human tumor 388556-164-R-J1-PDC patient-derived colon adenocarcinoma cell line growth inhibition [RAS]
Details: for pIC50: curve of first compound; for viability, T/C: stronger effect = lower value
Outline: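 Tumour cells grown as complex spheroids with HUVEC endothelial cells and mesenchymal stem cells, treated with RAS pathway inhibitor combinations. Each agent spans half-log steps from near clinical Cmax, or 10 microM where Cmax is unknown.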

[1] = second compound 0.0316 µM, first compound 0.0316 µM
[2] = second compound 0.0316 µM, first compound 0.1 µM
[3] = second compound 0.0316 µM, first compound 0.316 µM
[4] = second compound 0.0316 µM, first compound 1 µM
[5] = second compound 0.0316 µM, first compound 3.16 µM
[6] = second compound 0.0316 µM, first compound 10 µM
[7] = second compound 0.1 µM, first compound 0.0316 µM
[8] = second compound 0.1 µM, first compound 0.1 µM
[9] = second compound 0.1 µM, first compound 0.316 µM
[10] = second compound 0.1 µM, first compound 1 µM
[11] = second compound 0.1 µM, first compound 3.16 µM
[12] = second compound 0.1 µM, first compound 10 µM
[13] = second compound 0.316 µM, first compound 0.0316 µM
[14] = second compound 0.316 µM, first compound 0.1 µM
[15] = second compound 0.316 µM, first compound 0.316 µM
[16] = second compound 0.316 µM, first compound 1 µM
[17] = second compound 0.316 µM, first compound 3.16 µM
[18] = second compound 0.316 µM, first compound 10 µM
[19] = second compound 1 µM, first compound 0.0316 µM
[20] = second compound 1 µM, first compound 0.1 µM
[21] = second compound 1 µM, first compound 0.316 µM
[22] = second compound 1 µM, first compound 1 µM
[23] = second compound 1 µM, first compound 3.16 µM
[24] = second compound 1 µM, first compound 10 µM
[25] = second compound 3.16 µM, first compound 0.0316 µM
[26] = second compound 3.16 µM, first compound 0.1 µM
[27] = second compound 3.16 µM, first compound 0.316 µM
[28] = second compound 3.16 µM, first compound 1 µM
[29] = second compound 3.16 µM, first compound 3.16 µM
[30] = second compound 3.16 µM, first compound 10 µM
[31] = second compound 10 µM, first compound 0.0316 µM
[32] = second compound 10 µM, first compound 0.1 µM
[33] = second compound 10 µM, first compound 0.316 µM
[34] = second compound 10 µM, first compound 1 µM
[35] = second compound 10 µM, first compound 3.16 µM
[36] = second compound 10 µM, first compound 10 µM
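Also: spheroids exposed to compound for 7 days before readout.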
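For viability, T/C in this document: 100% = DMSO vehicle control luminescence.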

## CCN1CCN(Cc2ccc(Nc3ncc(F)c(-c4cc(F)c5nc(C)n(C(C)C)c5c4)n3)nc2)CC1 + CCn1c(-c2cc(N3CCN(C)CC3)cnc2C(C)OC)c2c3cc(ccc31)-c1csc(n1)CC(NC(=O)C1CC1C)C(=O)N1CCCC(N1)C(=O)OCC(C)(C)C2
Second compound 0.000949 µM
  pIC50: < 6.00
Second compound 0.003 µM
  pIC50: < 6.00
Second compound 0.00949 µM
  pIC50: 6.06
Second compound 0.03 µM
  pIC50: 6.66
Second compound 0.0949 µM
  pIC50: > 8.50
Second compound 0.3 µM
  pIC50: > 8.50
Second compound 0.000949 µM, first compound 0.00316 µM
  viability, T/C: 97.5%
Second compound 0.000949 µM, first compound 0.01 µM
  viability, T/C: 92.2%
Second compound 0.000949 µM, first compound 0.0316 µM
  viability, T/C: 93.1%
Second compound 0.000949 µM, first compound 0.1 µM
  viability, T/C: 79.4%
Second compound 0.000949 µM, first compound 0.316 µM
  viability, T/C: 75%
Second compound 0.000949 µM, first compound 1 µM
  viability, T/C: 75.2%
Second compound 0.003 µM, first compound 0.00316 µM
  viability, T/C: 96%
Second compound 0.003 µM, first compound 0.01 µM
  viability, T/C: 96.8%
Second compound 0.003 µM, first compound 0.0316 µM
  viability, T/C: 76.6%
Second compound 0.003 µM, first compound 0.1 µM
  viability, T/C: 71.3%
Second compound 0.003 µM, first compound 0.316 µM
  viability, T/C: 66.2%
Second compound 0.003 µM, first compound 1 µM
  viability, T/C: 58.7%
Second compound 0.00949 µM, first compound 0.00316 µM
  viability, T/C: 79.8%
Second compound 0.00949 µM, first compound 0.01 µM
  viability, T/C: 78.6%
Second compound 0.00949 µM, first compound 0.0316 µM
  viability, T/C: 68.5%
Second compound 0.00949 µM, first compound 0.1 µM
  viability, T/C: 58.1%
Second compound 0.00949 µM, first compound 0.316 µM
  viability, T/C: 62.7%
Second compound 0.00949 µM, first compound 1 µM
  viability, T/C: 46.8%
Second compound 0.03 µM, first compound 0.00316 µM
  viability, T/C: 59%
Second compound 0.03 µM, first compound 0.01 µM
  viability, T/C: 64.4%
Second compound 0.03 µM, first compound 0.0316 µM
  viability, T/C: 65.9%
Second compound 0.03 µM, first compound 0.1 µM
  viability, T/C: 57.9%
Second compound 0.03 µM, first compound 0.316 µM
  viability, T/C: 46.2%
Second compound 0.03 µM, first compound 1 µM
  viability, T/C: 38.7%
Second compound 0.0949 µM, first compound 0.00316 µM
  viability, T/C: 45.9%
Second compound 0.0949 µM, first compound 0.01 µM
  viability, T/C: 41.2%
Second compound 0.0949 µM, first compound 0.0316 µM
  viability, T/C: 35.4%
Second compound 0.0949 µM, first compound 0.1 µM
  viability, T/C: 30.8%
Second compound 0.0949 µM, first compound 0.316 µM
  viability, T/C: 34%
Second compound 0.0949 µM, first compound 1 µM
  viability, T/C: 31.4%
Second compound 0.3 µM, first compound 0.00316 µM
  viability, T/C: 33.2%
Second compound 0.3 µM, first compound 0.01 µM
  viability, T/C: 32.3%
Second compound 0.3 µM, first compound 0.0316 µM
  viability, T/C: 31.9%
Second compound 0.3 µM, first compound 0.1 µM
  viability, T/C: 30.8%
Second compound 0.3 µM, first compound 0.316 µM
  viability, T/C: 29.5%
Second compound 0.3 µM, first compound 1 µM
  viability, T/C: 31.5%

## CCC(CC)c1cc(NC2CCC(N)C2)n2nccc2n1 (stereo unspecified) + C#Cc1c(F)ccc2cc(O)cc(-c3ncc4c(N5CC6CCC(C5)N6)nc(OCC56CCCN5CC(F)C6)nc4c3F)c12
Second compound 0.0316 µM
  pIC50: 5.48
Second compound 0.1 µM
  pIC50: 5.64
Second compound 0.316 µM
  pIC50: 5.59
Second compound 1 µM
  pIC50: 5.60
Second compound 3.16 µM
  pIC50: 5.71
Second compound 10 µM
  pIC50: 5.88
[1]
  viability, T/C: 98.2%
[2]
  viability, T/C: 97.2%
[3]
  viability, T/C: 109%
[4]
  viability, T/C: 101%
[5]
  viability, T/C: 50.7%
[6]
  viability, T/C: 32.1%
[7]
  viability, T/C: 98.2%
[8]
  viability, T/C: 99.1%
[9]
  viability, T/C: 102%
[10]
  viability, T/C: 94.7%
[11]
  viability, T/C: 33.4%
[12]
  viability, T/C: 30.8%
[13]
  viability, T/C: 102%
[14]
  viability, T/C: 98%
[15]
  viability, T/C: 83.1%
[16]
  viability, T/C: 96.7%
[17]
  viability, T/C: 40.3%
[18]
  viability, T/C: 27.3%
[19]
  viability, T/C: 82.5%
[20]
  viability, T/C: 83.3%
[21]
  viability, T/C: 68.8%
[22]
  viability, T/C: 86.8%
[23]
  viability, T/C: 42%
[24]
  viability, T/C: 24.2%
[25]
  viability, T/C: 73.9%
[26]
  viability, T/C: 69.7%
[27]
  viability, T/C: 66.3%
[28]
  viability, T/C: 78.8%
[29]
  viability, T/C: 33.2%
[30]
  viability, T/C: 20.8%
[31]
  viability, T/C: 64.1%
[32]
  viability, T/C: 65.6%
[33]
  viability, T/C: 66.4%
[34]
  viability, T/C: 60.4%
[35]
  viability, T/C: 16.9%
[36]
  viability, T/C: 15.5%

## CC1(O)CCCC1n1c(=O)c(C(F)F)cc2cnc(NC3CCN(S(C)(=O)=O)CC3)nc21 (stereo unspecified) + C#Cc1c(F)ccc2cc(O)cc(-c3ncc4c(N5CC6CCC(C5)N6)nc(OCC56CCCN5CC(F)C6)nc4c3F)c12
Second compound 0.0316 µM
  pIC50: < 5.00
Second compound 0.1 µM
  pIC50: < 5.00
Second compound 0.316 µM
  pIC50: < 5.00
Second compound 1 µM
  pIC50: 5.03
Second compound 3.16 µM
  pIC50: 5.05
Second compound 10 µM
  pIC50: 5.28
[1]
  viability, T/C: 99.9%
[2]
  viability, T/C: 101%
[3]
  viability, T/C: 97.3%
[4]
  viability, T/C: 108%
[5]
  viability, T/C: 111%
[6]
  viability, T/C: 76.7%
[7]
  viability, T/C: 108%
[8]
  viability, T/C: 103%
[9]
  viability, T/C: 99.4%
[10]
  viability, T/C: 97.3%
[11]
  viability, T/C: 104%
[12]
  viability, T/C: 77.2%
[13]
  viability, T/C: 98.5%
[14]
  viability, T/C: 108%
[15]
  viability, T/C: 89.4%
[16]
  viability, T/C: 107%
[17]
  viability, T/C: 112%
[18]
  viability, T/C: 62.4%
[19]
  viability, T/C: 92.5%
[20]
  viability, T/C: 99.1%
[21]
  viability, T/C: 77.4%
[22]
  viability, T/C: 94.8%
[23]
  viability, T/C: 97.4%
[24]
  viability, T/C: 47.6%
[25]
  viability, T/C: 86.2%
[26]
  viability, T/C: 78.6%
[27]
  viability, T/C: 78.9%
[28]
  viability, T/C: 82.1%
[29]
  viability, T/C: 87.9%
[30]
  viability, T/C: 46.6%
[31]
  viability, T/C: 69.8%
[32]
  viability, T/C: 72.6%
[33]
  viability, T/C: 74.8%
[34]
  viability, T/C: 76.2%
[35]
  viability, T/C: 56.3%
[36]
  viability, T/C: 42.1%
